Source: PMC9354705, “Characterization of TR‐107, a novel chemical activator of the human mitochondrial protease ClpP” (Pharmacology Research & Perspectives, 2022)
Read-outs that look alike come from different tables or passages of the source.

Assays:
[1] = Pharmacokinetic analysis in ICR mice; format: in vivo, mouse; settings: male, mouse, plasma, ICR mice
Method: Samples were placed in tubes containing heparin sodium and stored on ice until centrifuged. Blood samples were centrifuged at 6800g for 6 min at 2–8°C within 1 h following sample collection and stored at −80°C. Proteins from plasma sample aliquots (20 μl) were precipitated by the addition of MeOH (400 μl) containing an internal standard (tolbutamide,100 ng/ml), vortexed for 1 min, and centrifuged at 18 000g for 7 min. The supernatant (200 μl) was transferred to 96 well plates for analysis.
Analysis of samples was conducted as follows. […] The PK parameters including Area Under the Curve (AUC[0–∞]) elimination half‐life (t 1/2), maximal plasma concentration (C max), and oral bioavailability (F%) were analyzed by noncompartmental methods.

SUM159 cells = assay: Cell viability (total cell count, Hoechst stain) in SUM159 cells; format: cell-based; settings: Homo sapiens, WT cells, 72 h, mean N = 3
Method: Human TNBC cell line SUM159 was a generous gift from Dr. Gary Johnson (the University of North Carolina at Chapel Hill). MDA‐MB‐231 (WT and CLPP‐KO) cells were provided by Dr. Stanley Lipkowitz (National Cancer Institute). MDA‐MB‐231 cells were cultured in RPMI‐1640 media (Gibco, 11875‐093) supplemented with 10% fetal bovine serum (FBS; VWR‐Seradigm, 97068‐085), and 1% antibiotic–antimycotic (anti/anti; ThermoFisher Scientific, 15240062). SUM159 cells were cultured in Dulbecco's modified Eagle's medium: Nutrient Mixture F‐12 (DMEM/F12; Gibco, 11330‐032) supplemented with 5% FBS, 5 μg/ml insulin (Gibco, 12585014), 1 μg/ml hydrocortisone, and 1% anti/anti. Cells were maintained at 5% CO2 and 37°C and periodically tested for mycoplasma.
Total cell counting assays were performed by seeding MDA‐MB‐231 cells (WT and ClpP‐KO; 4000 cells/well) or SUM159 (WT and ClpP‐KO; 1000 cells/well) in a 96‐well plate (Perkin Elmer, 6005050) and allowed to adhere overnight. The growth medium was then aspirated and replaced with 100 μl of growth medium supplemented with the drug at concentrations indicated in the figure or figure legends. Cells treated with vehicle control (0.1% DMSO, Sigma‐Aldrich D2650) were used as a negative control in all experiments, and cells were incubated with drug‐containing media for 24, 48, or 72 h as indicated in figure legends. Media was then aspirated and replaced with 100 μl Dulbecco's phosphate‐buffered saline (DPBS Gibco, 14190‐144) containing 1 μg/ml Hoechst stain (ThermoFischer Scientific, H3570) and allowed to incubate at 37°C for 30 min. The total cell number was then quantified using the Celigo Imaging Cytometer (Nexcelom).

## N#Cc1cccc(CN2CCc3ncn(Cc4ccc(Cl)cc4)c(=O)c3C2)c1 [TR‐107]
[1]; po, 10 mg/kg orally, read-out: exposure (AUC)
  AUC: 2360 ng·h/mL
[1]; 10 mg/kg oral
  AUC(0-inf): 2360 ng·h/mL
[1]; 10 mg/kg oral, read-out: C max
  Cmax: 3.7 µM
[1]; 10 mg/kg oral, read-out: C max (mg/ml)
  Cmax: 0.00144 mg/mL
[1]; 10 mg/kg oral, read-out: T 1/2 (converted)
  half-life: 54 min
SUM159 cells
  IC50: 12 nM
